Among the targets are Carbonic anhydrase 2 (Homo sapiens, UniProt P00918); Carbonic anhydrase 7 (Homo sapiens, UniProt P43166); Carbonic anhydrase 1 (Homo sapiens, UniProt P00915).

Chain of Carbonic anhydrase 1 (P00915 whole entry): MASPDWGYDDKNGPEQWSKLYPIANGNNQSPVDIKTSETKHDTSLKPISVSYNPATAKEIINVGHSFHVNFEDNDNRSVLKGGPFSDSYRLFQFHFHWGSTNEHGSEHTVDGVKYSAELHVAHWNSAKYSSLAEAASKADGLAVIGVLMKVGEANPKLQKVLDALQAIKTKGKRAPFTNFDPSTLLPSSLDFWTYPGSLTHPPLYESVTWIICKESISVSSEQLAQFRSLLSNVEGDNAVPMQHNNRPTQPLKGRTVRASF
Chain of Carbonic anhydrase 7 (P43166 whole entry): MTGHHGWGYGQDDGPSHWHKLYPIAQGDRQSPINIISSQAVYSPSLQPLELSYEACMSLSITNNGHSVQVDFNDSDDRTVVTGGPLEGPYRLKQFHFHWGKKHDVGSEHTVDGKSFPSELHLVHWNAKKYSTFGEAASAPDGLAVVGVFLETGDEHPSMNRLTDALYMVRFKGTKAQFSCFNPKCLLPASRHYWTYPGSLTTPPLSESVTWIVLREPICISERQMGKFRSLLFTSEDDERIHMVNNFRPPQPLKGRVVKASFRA

Regarding `NS(=O)(=O)c1ccc(NC(=O)Cc2cccs2)cc1`, the inhibitory constant (Ki) at Carbonic anhydrase 2 amounted to 50 nM; at Carbonic anhydrase 7 it was 6.2 nM; on Carbonic anhydrase 1, 61 nM.
With `NS(=O)(=O)c1ccc(CNC(=O)Cc2cccs2)cc1`, the Ki at Carbonic anhydrase 2 was 52 nM; at Carbonic anhydrase 7, 7.1 nM; at Carbonic anhydrase 1, 60 nM.
As to `NS(=O)(=O)c1ccc(CCNC(=O)Cc2cccs2)cc1`, the Ki on Carbonic anhydrase 2 was determined as 53 nM; at Carbonic anhydrase 7, 7.6 nM; on Carbonic anhydrase 1, 68 nM.
The like results for `NS(=O)(=O)c1ccc(NC(=O)Cc2ccccc2)cc1` were, in that order, 107 nM, 4.7 nM and 108 nM.

One may read the Ki as the equilibrium dissociation constant of an inhibitor or competing ligand from its target. A high value points to lower affinity.

The values are drawn from ChEMBL document CHEMBL1781985, “Carbonic anhydrase inhibitors. Phenacetyl-, pyridylacetyl- and thienylacetyl-substituted aromatic sulfonamides act as potent and selective isoform VII inhibitors” (Bioorg Med Chem Lett, 2009).
